Read-outs that look alike come from different tables or passages of the source.
Assays:
TcPRAC [1] = molecular target: T1, TcPRAC (Trypanosoma cruzi, UniProt Q4DA80); assay: L-proline racemization assay, formed D-proline determined by DAAOx test; assay type: biochemical
T1 construct: implied only by nickel IMAC purification; made in house; host or cells: E. coli BL21 (DE3)
Experimental: (§1) Briefly, classical assays of Proline racemization induced by TcPRAC were performed in tubes in a final volume of 1.5 ml and optical rotations measured in a polarimeter 241MC (Perkin Elmer). Parallel assays of Proline racemization were transposed into microplates in a final volume of 100 µl, as follows: serial dilutions of L- Proline ranging from 40 mM to 2.5 mM were prepared in 0.2 M sodium acetate pH 6.0 containing 0.25 mM rTcPRAC and loaded into microplate wells in the presence or in the absence of 0 - 20 µM pyrrole-2 carboxylic acid (PYC) or of similar dilutions of unknown potential inhibitors. Specific control wells were included omitting the TcPRAC and/or the PYC.
Microplates were incubated for 30 minutes at 37° C. Enzyme activity was then inactivated by heating the plate for 15 seconds in a microwave oven at 900 watts after shifting the pH of wells to 8.3 by addition of 6.8 µl of 0.235 M sodium Pyrophosphate. 50 µl of each well were used to test the presence of D-Proline using the DAAOx (D-amino acid oxidase) test described below. L- amino acids may react at very low rate with DAAOx. For instance, DAAOx reacts with L-Proline 300 times slower than D-Proline. Consequently, when assessing amino acid racemization products, standards should consist of serial dilution of equimolar mixtures of specific D- and L-amino acids ranging from 0 to 20 mM (10 mM final) to take into account any interference of possible reactivity with DAAOx of the L- form of amino acids present in the samples.
Solution A consisting of 0.2 M sodium acetate/0.016 M sodium pyrophosphate (Pop) buffer, pH 8.3 was used to prepare the enzyme stock solutions conserved in 50% glycerol, namely: 50 U/ml D-amino acid oxidase from pig kidney (DAAOx, Sigma) and 5000 U/ml Horse Raddish Peroxydase (HRP, Sigma). Stock solutions of L- proline (1M), D- proline (1M) and Pyrrole-2-carboxylic acid (10 mM) (PYC, Sigma) are also prepared in solution A. 10^-1 M FAD (Sigma) stock was prepared in water. Solution B consists in adding to solution A the following reagents at a final concentration in the assay of 1 U/ml for DAAOx, 0.5 mg/ml orthophenylenediamine (OPD, Sigma), 37.5 U/ml HRP and FAD (1.5x10^-5 M FAD). The test is run in 96 wells micro plates (Nunc, Denmark). […] OD 490nm - 650nm is obtained with a microtiter plate reader (Molecular Devices), and compared to those obtained with blank control wells.
The values presented in Table 2A correspond to racemization reactions performed in the absence or in the presence of 10 µM concentration of the different ligands. […] Briefly, 22.4 mg/ml of active TcPRAC was used in the racemization assays of 10 mM L-proline substrate and the concentration of formed D-proline was determined by the DAAOx test, as described in the Material and Methods. […]

TcPRAC [2] = molecular target: T1, TcPRAC; assay: L-proline racemization assay by polarimetry; assay type: biochemical; settings: ligand 10.0 µM; L-Proline 20 mM, 30 minutes 37°C, 0.25 µM TcPRAC
Experimental: as §1
The values presented in Table 2B correspond to racemization reactions performed in the absence or in the presence of the different inhibitors. Note that 6 µM PYC is necessary to inhibit 100 % of the racemization of 10-20 mM L-proline. Briefly, L-Proline (20 mM) were incubated for 30 minutes at 37°C in test tubes with or without 0.25 µM TcPRAC in 0.2 M sodium acetate pH 6. Reactions were stopped by heating at 65° C for 10 minutes. Reaction volumes were analyzed for D-Proline formation, by measuring optical rotations in a polarimeter (365nm).

T. cruzi = assay: Capture ELISA of Vero cultures infected 17h with or without inhibitor; assay type: cell-based, Trypanosoma cruzi; settings: 17h at 37°C, 10:1 parasite/cell ratio; 0-30 mM OxoPA, Br-OxoPA or 10-1000 µM PYC in DMSO; Fig. 9
Experimental: Flat-bottomed microtiter plates (Nunc, Denmark) were coated overnight at 4°C with rabbit anti-T. cruzi polyclonal antibodies and further blocked for 4 h at room temperature (RT) with 1% BSA, 0.05% Tween 20 in PBS. After washings, lysate samples from infected or control Vero cultures, or from T. cruzi, were then added and incubated at 4°C for 18h. Plates were washed with PBS-Tween and incubated for 2h at RT with polyclonal mouse anti-T. cruzi chronic serum, washed again and incubated for 1 h at RT with HRP-secondary antibodies. […] Optical densities were determined in a spectrophotometer at 450 nm and 650 nm and analyzed using Softmax Pro software.
To confirm the effect of the inhibitors in the initial steps of the host-parasite interaction, cultures were infected for 17h at 37°C at a 10:1 parasite/cell ratio with or without increasing doses of freshly prepared dilutions (0-30 mM) of OxoPA, Br-OxoPA (15), or (10-1000 µM) of PYC, previously dissolved in DMSO and further analyzed by capture ELISA (see methods and Fig. 9). […] Three ongoing studies were performed to determine whether TcPRAC inhibition by the new compounds affects parasite intracellular fate. To do this, host cells were infected for 17 hours then washed and different ligand concentrations (5 mM, 10 mM, 30, 100 mM) were added to the medium. The degree of infection was determined over 48 hours by capture ELISA. The number of parasites per well decreased in a dose-dependent manner (Fig. 7). These experiments indicate that TcPRAC inhibition by OxoPA and Br-OxoPA affects both cellular infection by T. cruzi and parasite development in tissues.

[3] = test system: T.cruzi CL Brener (clone F11-F5); settings: cited from earlier work; for Mean number of parasites/ cell / % Infected cells / Endocytic index: from previous work; for Endocytic index (EI): Table 5, same PYC data as Table 3A
recombinant TvPRAC = settings: 5 µM PYC, 20-160 mM L-proline; Chamond et al 2009; cited from earlier work
TcPRAC [4] = molecular target: T1, TcPRAC; settings: cited from earlier work
CsPRAC = settings: value given for comparison; cited from earlier work
TcPRAC [5] = molecular target: T1, TcPRAC; assay type: biochemical; settings: in words; for inhibition of TcPRAC activity: Table 1
Experimental: Optimum Proline racemization conditions for TcPRAC were determined using 10-20 mM L-Proline in 0.2 M NaOAc, as a function of pH, as described [24].
Briefly, classical assays of Proline racemization induced by TcPRAC were performed in tubes in a final volume of 1.5 ml and optical rotations measured in a polarimeter 241MC (Perkin Elmer). […] Specific control wells were included omitting the TcPRAC and/or the PYC.
Microplates were incubated for 30 minutes at 37° C. Enzyme activity was then inactivated by heating the plate for 15 seconds in a microwave oven at 900 watts after shifting the pH of wells to 8.3 by addition of 6.8 µl of 0.235 M sodium Pyrophosphate. 50 µl of each well were used to test the presence of D-Proline using the DAAOx (D-amino acid oxidase) test described below [25]. L- amino acids may react at very low rate with DAAOx. For instance, DAAOx reacts with L-Proline 300 times slower than D-Proline. Consequently, when assessing amino acid racemization products, standards should consist of serial dilution of equimolar mixtures of specific D- and L-amino acids ranging from 0 to 20 mM (10 mM final) to take into account any interference of possible reactivity with DAAOx of the L- form of amino acids present in the samples.
Solution A consisting of 0.2 M sodium acetate/0.016 M sodium pyrophosphate (Pop) buffer, pH 8.3 was used to prepare the enzyme stock solutions conserved in 50% glycerol, namely: 50 U/ml D-amino acid oxidase from pig kidney (DAAOx, Sigma) and 5000 U/ml Horse Raddish Peroxydase (HRP, Sigma). Stock solutions of L- proline (1M), D- proline (1M) and Pyrrole-2-carboxylic acid (10 mM) (PYC, Sigma) are also prepared in solution A. 10^-1 M FAD (Sigma) stock was prepared in water. Solution B consists in adding to solution A the following reagents at a final concentration in the assay of 1 U/ml for DAAOx, 0.5 mg/ml orthophenylenediamine (OPD, Sigma), 37.5 U/ml HRP and FAD (1.5x10^-5 M FAD). […] OD 490nm - 650nm is obtained with a microtiter plate reader (Molecular Devices), and compared to those obtained with blank control wells. […]

T1 sequence (Q4DA80 32-423): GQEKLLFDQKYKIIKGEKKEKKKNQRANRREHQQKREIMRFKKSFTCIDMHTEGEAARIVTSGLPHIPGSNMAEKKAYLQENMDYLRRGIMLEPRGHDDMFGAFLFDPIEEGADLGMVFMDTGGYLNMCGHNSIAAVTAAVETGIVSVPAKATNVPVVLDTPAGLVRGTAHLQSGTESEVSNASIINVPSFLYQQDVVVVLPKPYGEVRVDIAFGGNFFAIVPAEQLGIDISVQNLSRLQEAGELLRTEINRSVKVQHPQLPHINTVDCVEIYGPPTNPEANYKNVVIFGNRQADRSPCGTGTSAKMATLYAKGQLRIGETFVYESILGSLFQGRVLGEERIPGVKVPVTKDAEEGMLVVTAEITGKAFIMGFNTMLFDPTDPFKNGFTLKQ

Compound: O=C(O)c1ccc[nH]1 [PYC, pyrrole-2-carboxylic acid]
- IC50 (TcPRAC [1]): ~10 µM
- Formed D-Proline (TcPRAC [1]; ligand 10 µM, 10 mM L-proline, 22.4 mg/ml TcPRAC, 5.0mM without ligand): 2.4 mM (IC50)
- Racemization Inhibition (TcPRAC [2]): 56.9%
- inhibition of cellular infection (T. cruzi): no particular differences were observed
- Mean number of parasites/ cell ([3]; 10 µM, 2 at 0): 1,7
- % Infected cells ([3]; 10 µM, 90,0 at 0): 75,0%
- Endocytic index ([3]; 10 µM): 44
- % Infected cells ([3]; 100 µM): 45,0%
- Endocytic index ([3]; 100 µM): 30
- Mean number of parasites/ cell ([3]; 100 µM): 1,5
- % Infected cells ([3]; 1000 µM): 25,0%
- Endocytic index ([3]; 1000 µM): 25
- Mean number of parasites/ cell ([3]; 1000 µM): 1,0
- Endocytic index (EI) ([3]; Inhibitor concentration 10): 44
- Endocytic index (EI) ([3]; Inhibitor concentration 100): 30
- Endocytic index (EI) ([3]; Inhibitor concentration 1000): 25
- Ki (recombinant TvPRAC): 20 µM
- PYC necessary to inhibit 100 % of the racemization of 10-20 mM L-proline (TcPRAC [4]; reference [15]): 6 µM
- affinity for the TcPRAC catalytic pocket (TcPRAC [4]; reference [15]): 6 µM
- Ki (TcPRAC [4]; value given for comparison): 6.7 µM
- Ki (CsPRAC): 18 µM

Compound: O=C(O)c1n[nH]cc1Br [Pyrazole 4-bromo 5-carboxylic, 4-bromo-1H-pyrazole-3-carboxylic acid]
- inhibition of TcPRAC activity (TcPRAC [5]): weak inhibitions

Compound: O=C(O)c1n[nH]cc1Cl [Pyrazole 4-chloro 5-carboxylic, 4-chloro-1H-pyrazole-3-carboxylic acid]
- inhibition of TcPRAC activity (TcPRAC [5]): weak inhibitions

Compound: O=C(O)c1cc[nH]n1 [Pyrazole 5-carboxylic, 1H-pyrazole-3-carboxylic acid]
- activity with PRAC (Figure 1 compounds) (TcPRAC [5]): very weakly active
